Paper PMC11874007, “Switching Roles—Exploring Concentration-Dependent Agonistic versus Antagonistic Behavior of Integrin Ligands” (Journal of Medicinal Chemistry, 2025)

Legend:
Format in all cases: cell-based
[1] = test system: FAK, p-FAK, p44/42erk-1/2, p-p44/42erk-1/2 in αvβ3+ M21 cells; test: Western blot of FAK and p44/42erk-1/2 expression and activation, M21 cells
Protocol: (§1) Since agonistic ligand performance requires integrin activation and signaling, by Western blot analysis, we studied whether the different ligands alter the expression levels and activation states of FAK and p44/42^(erk-1/2). For this, the respective target integrin-expressing tumor cell types were incubated with the corresponding subtype-selective ligand at a concentration of 1 μM for 24 h (Figure 8). […] Signal intensities of FAK and p44/42^(erk-1/2) expression and activation (p-FAK and p-p44/42^(erk-1/2)) on Western blots were evaluated by densitometry. Data are depicted as GAPDH-normalized fluorescence signal intensities as n-fold, by setting values obtained for the respective untreated cells to “1”. […] MAPK p44/42^(erk-1/2) expression was approximately 2.2-fold augmented, p44/42^(erk-1/2) by approximately 2.5-fold. It also raised activation of p-FAK and p-p44/42^(erk-1/2) by approximately 2.2-fold and 3.1-fold, respectively, in α5β1+ OV-MZ-6 cells. […] Additionally, it raised FAK (approximately 1.7-fold) and p-p44/42^(erk-1/2) (approximately 2.4-fold) in α5β1+ OV-MZ-6 cells.
(§2) Figure 8 Effects of ligands on cellular expression and activation of integrin-related signaling molecules FAK and p44/42^(erk-1/2). […] Signal intensities for FAK and p-FAK, respectively, were evaluated by use of the Bio-Rad Imager Gel Doc XR+ and a ChemiDoc XRS+ Systems and the software Image Lab. Shown are typical representative Western blot images and the corresponding histograms depicting GAPDH-normalized signal intensities as n-fold by setting the values obtained for untreated cells to “1” (drawn as black line). For each cell line, cutouts of identical gels are depicted.
(§3) In order to capture early and transient changes in signaling activation following ligand treatment, we next reduced the observation periods to 5, 30, or 60 min and assessed FAK expression and activation. […] Depicted are typical Western blot images and the corresponding densitometrical evaluations of GAPDH-normalized signal intensities as n-fold, by setting that of the respective untreated cell type to “1” (Figure 9). […]
(§4) The kinases (p-)p44/42^(erk-1/2) and (p-)FAK were detected as previously published.[15],[8] Briefly, cells were grown for 18 h on six-well plates in DMEM (0.45 Mio cells/well). After medium exchange, fresh medium with L1–L5 (concentration: 1.0 μM, 2 mL/well) was added, and cells were incubated for another 24 h at 37 °C. In a second series, cells were incubated with L1–L5 (1 μM or 1 nM) for 5, 30, or 60 min. Thereafter, the cellular proteins were extracted and processed by Western blotting. Proteins were visualized using the Pierce ECL chemiluminescent substrate (Thermo Fisher Scientific). Band signal intensities for (p-)p44/42^(erk-1/2) and (p-)FAK were evaluated using the Bio-Rad Imager Gel Doc XR + and ChemiDoc XRS + Systems and the software Image Lab. Differences in protein loading and blotting efficiency were normalized by reprobing the membranes with a monoclonal antibody directed to GAPDH. Signal intensities for protein bands of interest were normalized to those recorded for GAPDH. Typical Western blot images are depicted together with histograms summarizing the mean values of normalized fluorescence signal intensities as n-fold, by setting those obtained for untreated cells to “1”.

[2] = test system: FAK, p-FAK, p44/42erk-1/2, p-p44/42erk-1/2 in α5β1+ OV-MZ-6 cells; test: Western blot of FAK and p44/42erk-1/2 expression and activation, OV-MZ-6 cells; conditions: for p-FAK, transient elevation, n-fold of untreated cells: concentration not specified
Protocol: as §1, §2, §3, §4

αvβ3+ M21 cells = test: Wound scratch cell migration assay, M21 cells
Protocol: (§5) As a biological readout for integrin signaling, we analyzed ligand effects on cell adhesion and migration by wound scratch assays (Figure 10A,B). […] Microscopical images were taken directly after wounding the cell monolayers and then after 9, 24, 48, and 72 h, respectively.
(§6) Figure 10 (A) Effect of integrin ligands on cancer cell migration. […] Microscopical measurements of wound gaps were taken directly after setting the wound scratch and then after 9, 24, 48, and 72 h, respectively. Wound scratch assays were repeated at least three times. The extent of wound gap closure [%]/cell coverage was calculated by a python script utilizing Canny’s Edge Detection algorithm as described under Materials and summarized in the corresponding histograms (see also Scheme S5 in the Supporting Information). (B) Adhesion of M21, OV-MZ-6, and HN cells in the presence of the respective integrin targeting ligand at low (1 nM) and high (1 μM) concentrations. […] Depicted are typical microscopical images of the respective cell monolayers.
(§7) The assays were performed according to a modified protocol as previously published.[94] Cells were cultivated on fibronectin-coated 12-well cell culture plates until cell monolayers reached an approximately 80% confluency. Then, the wound scratch was set utilizing a 200 μL pipet tip. Subsequently, fresh culture medium was added in the absence or presence of L1–L5 (concentration: 1 μM or 1 nM), and microscopical images (Zeiss, Oberkochen, Germany) were taken at two identical positions of the wound gap directly after wounding and then at 9, 24, 48, or 72 h of further cell cultivation. Each wound scratch assay was repeated three times. A custom python script was implemented to analyze wound gap closure over time: after cropping the images, we used the OpenCV[95] implementation of Canny’s Edge Detection Algorithm[96] to ensure reliable measurements even with variable lighting conditions.[97] As a first step, a 5 × 5 Gaussian filter was applied to remove background noise. The smoothened images were then filtered by a Sobel kernel[98] and the magnitude and direction of the intensity gradient of the images calculated. Then, a non-maximum suppression algorithm was applied to identify relevant pixels that presumably contribute to edges. In a final step, threshold hysteresis was utilized to distinguish true edges from variations in intensity or the remaining background noise. The resulting images were then segmented and binarized by use of a grid filter and analyzed with respect to cell-covered area relative to the start image of each series.

α5β1+ OV-MZ-6 cells = test: Wound scratch cell migration assay, OV-MZ-6 cells; conditions: for Effect on wound gap closure / cell migration: OV-MZ-6 cells
Protocol: as §5, §6, §7
Scheme S5. Effect of integrin ligands on cancer cell migration (control cells to Fig. 10A in the main manuscript). a) Integrin αvβ3- OV-MZ-6 cells, α5β1- M21 cells, α5β1+ and αvβ3- and […]
mages of wound gaps were taken directly after setting the wound scratch and then after […], respectively. Wound scratch assays were repeated at least 3 times. The extent of wound gap closure [%]/cell coverage was calculated by a python script utilizing Canny’s Edge Detection algorithm11 as described in the Experimental Section and summarized in the corresponding histograms.
(1 picture or pasted object on this page, not shown here)

[3] = concentration not specified or both, within 60 min

## C#CCCC(=O)NCCCOc1cc(C)c(C(=O)N[C@@H](CNC(=O)CNC(=O)c2cccc(NC(=N)N)c2)C(=O)O)c(C)c1 [L5, (S)-2-(2,6-Dimethyl-4-(3-(pent-4-ynamido)propoxy)benzamido)-3-(2-(3-guanidinobenzamido)acetamido)propanoic Acid]
[1]; 1 μM, 24 h
  (p-)p-44/42erk-1/2: unexpectedly increased
[1]; both concentrations (1 nM, 1 μM), up to 60 min
  p-FAK levels versus untreated cells: equal or slightly higher than those in untreated cells
[2]; 1 nM, 5, 30 or 60 min
  FAK levels, n-fold of untreated cells: approximately 1.6 fold
  p-FAK, highest or initial elevation, n-fold of untreated cells: approximately threefold
[2]; 1 μM
  p-FAK, highest induction at 30 min, n-fold of untreated cells: approximately fourfold
[2]; 1 μM, 5, 30 or 60 min
  FAK expression versus untreated cells: equal to or only slightly higher than that in untreated cells
[2]; 1 μM, 24 h
  (p-)FAK and (p-)p-44/42erk-1/2: did not modulate
αvβ3+ M21 cells; 1 nM
  Effect on wound gap closure / cell migration: did not alter their migratory capacity
αvβ3+ M21 cells; 1 μM
  Effect on wound gap closure / cell migration: no abrogation of cell migration was observed
α5β1+ OV-MZ-6 cells; 1 nM
  Effect on wound gap closure / cell migration: did not alter their migratory capacity
α5β1+ OV-MZ-6 cells; 1 μM
  Effect on wound gap closure / cell migration: blocked migration

## c(FRGDLAFp(NMe)K) [L3]
[2]; [3]
  FAK expression versus untreated cells: no effect
[2]; within 60 min
  p-FAK, transient elevation, n-fold of untreated cells: approximately 2.9 fold
α5β1+ OV-MZ-6 cells; αvβ6- OV-MZ-6 cells, concentration not specified
  Effect on wound gap closure: delayed wound gap closure

## C#CCCC(=O)NCCCOc1ccc(C(=O)N[C@H](CC(=O)O)Cc2ccc(OCCCNc3cc(OC)ccn3)cc2)cc1 [L1, (S)-4-(4-(3-((4-Methoxypyridin-2-yl)amino)propoxy)phenyl)-3-(4-(3-(pent-4-ynamido)propoxy)benzamido)butanoic Acid]
[1]; 1 nM, 5, 30 or 60 min
  FAK expression versus untreated cells: transient and slight increase
  p-FAK expression: always prominently higher than that at 1 μM
[1]; 1 μM, 5, 30 or 60 min
  FAK expression versus untreated cells: remained below that in untreated cells
[1]; 1 μM, 24 h, GAPDH-normalized
  FAK expression, n-fold of untreated cells: doubled
  p-FAK expression, n-fold of untreated cells: slightly reduced
[2]; 1 μM, 24 h, GAPDH-normalized
  FAK, n-fold of untreated cells: approximately 1.7 fold
  p-p44/42erk-1/2, n-fold of untreated cells: approximately 2.4 fold
[2]; [3]
  FAK expression versus untreated cells: transient slight increase
[2]; within 60 min
  p-FAK, transient elevation, n-fold of untreated cells: approximately twofold
αvβ3+ M21 cells; 1 nM
  Effect on wound gap closure / cell migration: enhanced wound gap closure
αvβ3+ M21 cells; 1 μM
  Effect on wound gap closure / cell migration: less effective than cilengitide (L2) in blocking cell migration
αvβ3+ M21 cells; 1 μM, within 72 h
  Cell coverage (wound gap closure): approximately 80%
α5β1+ OV-MZ-6 cells; 1 nM
  Effect on wound gap closure / cell migration: not observed
α5β1+ OV-MZ-6 cells; 1 μM
  Effect on wound gap closure / cell migration: more efficient blockade of cell migration than in M21 cells
